# Experimental data published in patent US8937077B2, “Bicyclic diamines as janus kinase inhibitors” (Merck Sharp & Dohme Corp., priority 2010, dated 2015).
# Target: T1, Jak1 (Homo sapiens, UniProt P23458)
# T1 construct: using a recombinant purified GST-tagged catalytic domain for each enzyme; GST; purchased Invitrogen M4290
# Test: Jak Biochemical HTRF Assay (Jak1)
# Settings: IC50 class, recombinant GST-tagged catalytic domain, read-out: Jak1 activity
# From the text: Compounds of formula I can be prepared according to the general procedures described in the Schemes and Examples herein, using appropriate materials. Representative compounds of the present invention are exemplified herein below. The compounds exemplified are not, however, to be construed as limiting the scope of the invention in any manner. The examples further illustrate details for the preparation of the compounds of the present invention. Those skilled in the art will readily understand that known variations of protecting groups, of reagents, as well as of the conditions and processes of the following preparative procedures, can be used to prepare these compounds. It is also understood that whenever a chemical reagent is not commercially available, such a chemical reagent can be readily prepared by those skilled in the art by either following or adapting known methods described in the literature or described herein. Chiral analogs were prepared via incorporation of chiral reagents or obtained after chiral chromatography separation of a racemically generated analog. All temperatures are degrees Celsius unless otherwise noted. Mass spectra (MS) were measured either by electrospray ion-mass spectroscopy (ESMS) or by atmospheric pressure chemical ionization mass spectroscopy (APCI). Jak1 data were obtained using the in vitro assay described below.
# Jak Biochemical HTRF Assay Protocol
# The ability of compounds to inhibit the activity of Jak1, Jak2, Jak3, and Tyk2 was measured using a recombinant purified GST-tagged catalytic domain for each enzyme (Invitrogen Jak1 #M4290, […]) in an HTRF format biochemical assay. The reactions employed a common peptide substrate, LCB-EQEDEPEGDYFEWLW-NH2 (in-house). The basic assay protocol is as follows: First, […] of diluted compounds in DMSO were dispensed into the wells of a dry 384-well Black plate (Greiner #781076) using a Labcyte Echo 555 acoustic dispenser. Subsequent reagent additions employed an Agilent Bravo. Next, 18 μL, of 1.11X enzyme and 1.11X substrate in 1X assay buffer (Invitrogen kinase buffer #PV3189, 2 mM DTT, 0.05% BSA) were added to the wells and shaken and then preincubated for 30 minutes at room temperature to allow compound binding to equilibrate. After equilibration, 2 μL of 10X ATP in 1X assay buffer was added to initiate the kinase reaction and the plates were shaken and then incubated at room temperature for 120 minutes. At the end of the incubation, 20 μL of 2X stop buffer (streptavidin-Dylight (Thermo #21845), Eu-tagged pY20 antibody (Perkin Elmer #AD0067), EDTA, HEPES, and Triton) was added to quench the reaction. Plates were shaken and centrifuged and then incubated 60 minutes at room temperature and then read on a Perkin Elmer Envision (λex=337 nm, λem=665 and 615 nm, TRF delay time=20 μs). HTRF signal=10,000*665 nm reading/615 nm reading. After normalization to untreated controls, the percent inhibition of the HTRF signal at each compound concentration was calculated. The plot of percent inhibition versus the log of compound concentration was fit with a 4-parameter dose response equation to calculate IC50 values.
# T1 sequence (P23458 875-1153 limits assumed): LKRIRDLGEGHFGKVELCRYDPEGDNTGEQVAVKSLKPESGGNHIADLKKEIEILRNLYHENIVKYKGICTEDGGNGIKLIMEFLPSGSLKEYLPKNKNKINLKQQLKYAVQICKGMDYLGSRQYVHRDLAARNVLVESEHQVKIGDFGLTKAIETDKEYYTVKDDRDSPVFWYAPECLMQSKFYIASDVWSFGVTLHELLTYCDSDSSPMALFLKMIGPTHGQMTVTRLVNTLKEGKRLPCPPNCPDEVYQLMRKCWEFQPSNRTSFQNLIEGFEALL
row,SMILES,IC50
1,"Cc1ccc(COC(=O)N2CCCC3C2CCN3c2ncnc3[nH]ccc23)cc1 (stereo not shown) [Example 3-17, 4-methylbenzyl 1-(7H-pyrrolo[2,3-d]pyrimidin-4-yl)octahydro-4H-pyrrolo[3,2-b]-pyridine-4-carboxylate]",10 to 100 nM
2,"O=C(OCc1cnccn1)N1CCCC2C1CCN2c1ncnc2[nH]ccc12 (stereo not shown) [Example 3-18, pyrazin-2-ylmethyl 1-(7H-pyrrolo[2,3-d]pyrimidin-4-yl)octahydro-4H-pyrrolo[3,2-b]-pyridine-4-carboxylate]",10 to 100 nM
3,"O=C(OCc1cccnc1)N1CCC[C@@H]2[C@H]1CCN2c1ncnc2[nH]ccc12 [Example 3-19, pyridin-3-ylmethyl (3aR,7aR)-1-(7H-pyrrolo[2,3-d]pyrimidin-4-yl)octahydro-4H-pyrrolo[3,2-b]pyridine-4-carboxylate]",100 to 1000 nM
4,"COC(=O)c1cccc(COC(=O)N2CCC[C@@H]3[C@H]2CCN3c2ncnc3[nH]ccc23)c1 [Example 3-20, 3-(methoxycarbonyl)benzyl (3aR,7aR)-1-(7H-pyrrolo[2,3-d]pyrimidin-4-yl)octahydro-4H-pyrrolo[3,2-b]pyridine-4-carboxylate]",100 to 1000 nM
5,"COC(=O)c1ccc(CCOC(=O)N2CCC[C@@H]3[C@H]2CCN3c2ncnc3[nH]ccc23)cc1 [Example 3-21, 2-[4-(methoxycarbonyl)phenyl]ethyl (3aR,7aR)-1-(7H-pyrrolo[2,3-d]pyrimidin-4-yl)octahydro-4H-pyrrolo[3,2-b]pyridine-4-carboxylate]",10 to 100 nM
6,"COC(=O)c1ccc(CCCOC(=O)N2CCC[C@@H]3[C@H]2CCN3c2ncnc3[nH]ccc23)cc1 [Example 3-22, 3-[4-(methoxycarbonyl)phenyl]propyl (3aR,7aR)-1-(7H-pyrrolo[2,3-d]pyrimidin-4-yl)octahydro-4H-pyrrolo[3,2-b]pyridine-4-carboxylate]",10 to 100 nM
7,"C[C@@H](OC(=O)N1CCCC2C1CCN2c1ncnc2[nH]ccc12)c1ccccc1 (stereo partly drawn) [Example 3-23, (1R)-1-phenylethyl 1-(7H-pyrrolo[2,3-d]pyrimidin-4-yl)octahydro-4H-pyrrolo[3,2-b]-pyridine-4-carboxylate]",10 to 100 nM
8,"C[C@H](OC(=O)N1CCCC2C1CCN2c1ncnc2[nH]ccc12)c1ccccc1 (stereo partly drawn) [Example 3-24, (1S)-1-phenylethyl 1-(7H-pyrrolo[2,3-d]pyrimidin-4-yl)octahydro-4H-pyrrolo[3,2-b]-pyridine-4-carboxylate]",10 to 100 nM
9,"COC(=O)c1ccc(COC(=O)N2CCCC3C2CCN3c2ncnc3[nH]ccc23)cc1 (stereo not shown) [Example 3-25, 4-(methoxycarbonyl)benzyl 1-(7H-pyrrolo[2,3-d]pyrimidin-4-yl)octahydro-4H-pyrrolo[3,2-b]pyridine-4-carboxylate]",1 to 10 nM
10,"COC(=O)c1cccc(OC(=O)N2CCCC3C2CCN3c2ncnc3[nH]ccc23)c1 (stereo not shown) [Example 3-26, 3-(methoxyeaxbonyl)phenyl 1-(7H-pyrrolo[2,3-d]pyrimidin-4-yl)octahydro-4H-pyrrolo[3,2-b]pyridine-4-carboxylate]",10 to 100 nM
11,"O=C(OCCN1CCS(=O)(=O)CC1)N1CCC[C@@H]2[C@H]1CCN2c1ncnc2[nH]ccc12 [Example 3-27, 2-(1,1-dioxidothiomorpholin-4-yl)ethyl (3 aR,7 aR)-1-(7H-pyrrolo[2,3-d]pyrimidin-4-yl)octahydro-4H-pyrrolo[3,2-b]pyridine-4-carboxylate]",100 to 1000 nM
12,"O=C(OCCc1ccc2c(c1)CCO2)N1CCC[C@@H]2[C@H]1CCN2c1ncnc2[nH]ccc12 [Example 3-28, 2-(2,3-dihydro-1-benzofuran-5-yl)ethyl (3aR,7aR)-1-(7H-pyrrolo[2,3-d]pyrimidin-4-yl)octahydro-4H-pyrrolo[3,2-b]pyridine-4-carboxylate]",10 to 100 nM

# Second part, the compound after the results:
row,IC50,SMILES
1,10 to 100 nM,"COC(=O)C1CC1CCOC(=O)N1CCC[C@@H]2[C@H]1CCN2c1ncnc2[nH]ccc12 (stereo partly drawn) [Example 3-29, 2-[2-(methoxycarbonyl)cyclopropyl]ethyl (3aR,7aR)-1-(7H-pyrrolo[2,3-d]pyrimidin-4-yl)octahydro-4H-pyrrolo[3,2-b]pyridine-4-carboxylate]"
2,10 to 100 nM,"O=C(OCC1CC1)N1CCC[C@@H]2[C@H]1CCN2c1ncnc2[nH]ccc12 [Example 3-31, cyclopropylmethyl (3aR,7aR)-1-(7H-pyrrolo[2,3-d]pyrimidin-4-yl)octahydro-4H-pyrrolo[3,2-b]pyridine-4-carboxylate]"
3,10 to 100 nM,"O=C(OC1CCCCC1)N1CCC[C@@H]2[C@H]1CCN2c1ncnc2[nH]ccc12 [Example 3-32, cyclohexyl (3aR,7aR)-1-(7H-pyrrolo[2,3-d]pyrimidin-4-yl)octahydro-4H-pyrrolo[3,2-b]pyridine-4-carboxylate]"
4,1 to 10 nM,"O=C(OCc1ccccc1F)N1CCC[C@@H]2[C@H]1CCN2c1ncnc2[nH]ccc12 [Example 3-33, 2-fluorobenzyl (3aR,7aR)-1-(7H-pyrrolo[2,3-d]pyrimidin-4-yl)octahydro-4H-pyrrolo[3,2-b]pyridine-4-carboxylate]"
5,100 to 1000 nM,"O=C(OCCc1cccc2ccccc12)N1CCC[C@@H]2[C@H]1CCN2c1ncnc2[nH]ccc12 [Example 3-34, 2-naphthalen-1-ylethyl (3aR,7aR)-1-(7H-pyrrolo[2,3-d]pyrimidin-4-yl)octahydro-4H-pyrrolo[3,2-b]pyridine-4-carboxylate]"
6,100 to 1000 nM,"O=C1CCCN1CCOC(=O)N1CCC[C@@H]2[C@H]1CCN2c1ncnc2[nH]ccc12 [Example 3-36, 2-(2-oxopyrrolidin-1-yl)ethyl (3aR,7aR)-1-(7H-pyrrolo[2,3-d]pyrimidin-4-yl)octahydro-4H-pyrrolo[3,2-b]pyridine-4-carboxylate]"
7,10 to 100 nM,"O=C(OCCc1ccccn1)N1CCC[C@@H]2[C@H]1CCN2c1ncnc2[nH]ccc12 [Example 3-37, 2-pyridin-2-ylethyl (3aR,7 aR)-1-(7H-pyrrolo[2,3-d]pyrimidin-4-yl)octahydro-4H-pyrrolo[3,2-b]pyridine-4-carboxylate]"
8,10 to 100 nM,"O=C(OCCN1CCOCC1)N1CCC[C@@H]2[C@H]1CCN2c1ncnc2[nH]ccc12 [Example 3-39, 2-morpholin-4-ylethyl (3aR,7aR)-1-(7H-pyrrolo[2,3-d]pyrimidin-4-yl)octahydro-4H-pyrrolo[3,2-b]pyridine-4-carboxylate]"
9,100 to 1000 nM,"O=C(OCCN1CCCC1)N1CCC[C@@H]2[C@H]1CCN2c1ncnc2[nH]ccc12 [Example 3-40, 2-pyrrolidin-1-ylethyl (3aR,7aR)-1-(7H-pyrrolo[2,3-d]pyrimidin-4-yl)octahydro-4H-pyrrolo[3,2-b]pyridine-4-carboxylate]"
10,100 to 1000 nM,"CN1CCN(CCOC(=O)N2CCC[C@@H]3[C@H]2CCN3c2ncnc3[nH]ccc23)CC1 [Example 3-41, 2-(4-methylpiperazin-1-yl)ethyl(3aR,7aR)-1-(7H-pyrrolo[2,3-d]pyrimidin-4-yl)octahydro-4H-pyrrolo[3,2-b]pyridine-4-carboxylate]"
11,100 to 1000 nM,"CN1CCC(COC(=O)N2CCC[C@@H]3[C@H]2CCN3c2ncnc3[nH]ccc23)CC1 [Example 3-42, (1-methylpiperidin-4-yl)methyl (3 aR,7 aR)-1-(7H-pyrrolo[2,3-d]pyrimidin-4-yl)octahydro-4H-pyrrolo[3,2-b]pyridine-4-carboxylate]"
12,10 to 100 nM,"O=C(OCCc1cc(F)cc(F)c1)N1CCC[C@@H]2[C@H]1CCN2c1ncnc2[nH]ccc12 [Example 3-44, 2-(3,5-difluorophenyl)ethyl (3aR,7aR)-1-(7H-pyrrolo[2,3-d]pyrimidin-4-yl)octahydro-4H-pyrrolo[3,2-b]pyridine-4-carboxylate]"
13,10 to 100 nM,"O=C(OCCn1ccc2ccccc21)N1CCC[C@@H]2[C@H]1CCN2c1ncnc2[nH]ccc12 [Example 3-45, 2-(1H-indol-1-yl)ethyl (3aR,7aR)-1-(7H-pyrrolo[2,3-d]pyrimidin-4-yl)octahydro-4H-pyrrolo[3,2-b]pyridine-4-carboxylate]"
14,10 to 100 nM,"O=C(OCC1CCCCC1)N1CCC[C@@H]2[C@H]1CCN2c1ncnc2[nH]ccc12 [Example 3-46, cyclohexylmethyl (3aR,7aR)-1-(7H-pyrrolo[2,3-d]pyrimidin-4-yl)octahydro-4H-pyrrolo[3,2-b]pyridine-4-carboxylate]"

# Same assay, conditions: recombinant GST-tagged catalytic domain, 31.8 μM ATP, read-out: Representative IC50 values
row,IC50,SMILES
1,11 nM,"O=C(OC1CCCCC1)N1CCC[C@@H]2[C@H]1CCN2c1ncnc2[nH]ccc12 [Example 3-32, cyclohexyl (3aR,7aR)-1-(7H-pyrrolo[2,3-d]pyrimidin-4-yl)octahydro-4H-pyrrolo[3,2-b]pyridine-4-carboxylate]"
2,131 nM,"CN1CCN(CCOC(=O)N2CCC[C@@H]3[C@H]2CCN3c2ncnc3[nH]ccc23)CC1 [Example 3-41, 2-(4-methylpiperazin-1-yl)ethyl(3aR,7aR)-1-(7H-pyrrolo[2,3-d]pyrimidin-4-yl)octahydro-4H-pyrrolo[3,2-b]pyridine-4-carboxylate]"
